Measured values reported in paper PMC12016938, “A small molecule PKCε inhibitor reduces hyperalgesia induced by paclitaxel or opioid withdrawal” (JCI Insight, 2025).
Several values for one entry are separate records, joined by “and”; a condition that tells them apart may be missing. Identical values can stand only once. Like-named read-outs stand apart in the source and are kept apart here.

Assay: Pharmacokinetic studies in rats (plasma and brain)
Assay type: in vivo
Description: Because binding to plasma protein was approximately 90%, we predicted that the free concentration at each time point was 10 times lower than the measured plasma concentration.
Pharmacokinetic studies in rats. Pharmacokinetics studies were contracted to the Drug Metabolism and Pharmacokinetics Core at Scripps Research. CP612 was dissolved at in 10% Tween-80/90% water and administered at 40 mg/kg/5 mL. Six rats were injected i.v. and 6 were injected i.p. Three rats were used to collect a full plasma time course from 5 minutes to 24 hours after dose. Then, brains were collected from these rats at 24 hours and from 3 additional rats at 2 hours after administration of compound. One rat receiving i.p. administration of CP612 was excluded as it had low/nondetectable levels indicating missed i.p. injection in that rat. Plasma samples were diluted 10-fold in blank plasma. Each brain was disrupted in potassium phosphate buffer (pH 7.4; 9 μL per 1mg tissue) on ice using brief sonication pulses. CP612 was detected with an API Triple Quad 5500 LC-MS/MS (SCIEX) using an MRM(+) method: CP612 (463/282, m/z) with carbamazepine (238/195.1, m/z) as an internal standard.

[1] = rat, i.v. 40 mg/kg, 24h, individual rat, 40 mg/kg
[2] = rat, plasma, ip, 40 mg/kg, i.p. 40 mg/kg, individual rat
[3] = rat, plasma, ip, 40 mg/kg, i.p. 40 mg/kg, mean all rats
[4] = rat, plasma, iv, 40 mg/kg, i.v. 40 mg/kg, individual rat
[5] = rat, plasma, iv, 40 mg/kg, i.v. 40 mg/kg, mean all rats

## N[C@H](CNC(=O)C1(c2ccc(Cl)cc2)CCCC1)c1ccc(C(=O)Nc2ccncc2)cc1 [CP612]
rat, i.v. 40 mg/kg, 6h, individual rat, 40 mg/kg
  Plasma concentration: 1.8230 µM and 1.1599 µM
rat, i.v. 40 mg/kg, 8h, individual rat, 40 mg/kg
  Plasma concentration: 1.5465 µM and 1.2657 µM
[1]
  Brain/Plasma: 11.80 and 2.82 and 12.90
  Plasma concentration: 0.1270 µM and 0.2873 µM and 0.1609 µM
rat, i.v. 40 mg/kg, 24h, individual rat, 40 mg/kg, read-out: Brain concentration
  concentration at 2 h: 1.4990 µM and 0.8100 µM and 2.0757 µM
rat, i.v. 40 mg/kg, individual rat, 40 mg/kg
  Plasma 2h/24h: 88.9456 and 42.9323 and 75.0336
rat, i.v. 40 mg/kg, mean all rats
  Plasma 2h/24h: 68.9705
rat, i.v. 40 mg/kg, mean of RM Plasma + Brain 24h rats
  Plasma 2h/24h: 68.9705
rat, ip, rats, 40 mg/kg i.p., plasma
  Cmax: 29.3 ± 1 µM
rat, iv, rats, 40 mg/kg i.v., plasma
  Cmax: 104 ± 3.1 µM
[2]
  concentration at 15 min: 22 µM
  concentration at 30 min: 30.2 µM
  concentration at 1 h: 28.3 µM
  concentration at 4 h: 5.16 µM
[3]
  concentration at 15 min: 21.9 µM
  concentration at 30 min: 25.4 µM
  concentration at 1 h: 28.3 µM
  concentration at 4 h: 5.82 µM
rat, plasma, ip, 40 mg/kg, i.p. 40 mg/kg, 6h, individual rat
  concentration at 6 h: 1.91 µM
rat, plasma, ip, 40 mg/kg, i.p. 40 mg/kg, 6h, mean all rats
  concentration at 6 h: 1.89 µM
rat, plasma, ip, 40 mg/kg, i.p. 40 mg/kg, 8h, individual rat
  concentration at 8 h: 2.29 µM
rat, plasma, ip, 40 mg/kg, i.p. 40 mg/kg, 8h, mean all rats
  concentration at 8 h: 2.13 µM
rat, plasma, ip, 40 mg/kg, rat, i.p. 40 mg/kg, 2h, individual rat, read-out: Plasma concentration
  concentration at 2 h: 14.4 µM
rat, plasma, ip, 40 mg/kg, rat, i.p. 40 mg/kg, 2h, mean all rats, read-out: Plasma concentration
  concentration at 2 h: 15 µM
rat, plasma, ip, 40 mg/kg, rat, i.p. 40 mg/kg, 2h, mean of Plasma 2h, Brain 2h rats, read-out: Plasma concentration
  concentration at 2 h: 15.1 µM
rat, plasma, ip, 40 mg/kg, rat, i.p. 40 mg/kg, 2h, mean of RM Plasma + Brain 24h rats, read-out: Plasma concentration
  concentration at 2 h: 14.7 µM
rat, plasma, ip, 40 mg/kg, rat, i.p. 40 mg/kg, 24h, individual rat, read-out: Plasma concentration
  concentration at 24 h: 0.38 µM
rat, plasma, ip, 40 mg/kg, rat, i.p. 40 mg/kg, 24h, mean all rats, read-out: Plasma concentration
  concentration at 24 h: 0.498 µM
rat, plasma, ip, 40 mg/kg, rat, i.p. 40 mg/kg, 24h, mean of RM Plasma + Brain 24h rats, read-out: Plasma concentration
  concentration at 24 h: 0.498 µM
rat, plasma, ip, rats, 40 mg/kg i.p.
  half-life: 6.8 ± 0.7 h
[4]
  concentration at 5 min: 80.3 µM
  concentration at 15 min: 57 µM
  concentration at 1 h: 26.4 µM
  concentration at 4 h: 3.97 µM
[5]
  concentration at 5 min: 80.3 µM
  concentration at 15 min: 52.6 µM
  concentration at 30 min: 28.5 µM
  concentration at 1 h: 24.8 µM
  concentration at 4 h: 4.11 µM
rat, plasma, iv, 40 mg/kg, i.v. 40 mg/kg, 6h, individual rat
  concentration at 6 h: 1.68 µM
rat, plasma, iv, 40 mg/kg, i.v. 40 mg/kg, 6h, mean all rats
  concentration at 6 h: 1.55 µM
rat, plasma, iv, 40 mg/kg, i.v. 40 mg/kg, 8h, individual rat
  concentration at 8 h: 1.42 µM
rat, plasma, iv, 40 mg/kg, i.v. 40 mg/kg, 8h, mean all rats
  concentration at 8 h: 1.41 µM
rat, plasma, iv, 40 mg/kg, rat, i.v. 40 mg/kg, 2h, individual rat, read-out: Plasma concentration
  concentration at 2 h: 11.3 µM
rat, plasma, iv, 40 mg/kg, rat, i.v. 40 mg/kg, 2h, mean all rats, read-out: Plasma concentration
  concentration at 2 h: 13.9 µM
rat, plasma, iv, 40 mg/kg, rat, i.v. 40 mg/kg, 2h, mean of Plasma 2h, Brain 2h rats, read-out: Plasma concentration
  concentration at 2 h: 16 µM
rat, plasma, iv, 40 mg/kg, rat, i.v. 40 mg/kg, 2h, mean of RM Plasma + Brain 24h rats, read-out: Plasma concentration
  concentration at 2 h: 11.9 µM
rat, plasma, iv, 40 mg/kg, rat, i.v. 40 mg/kg, 24h, mean all rats, read-out: Plasma concentration
  concentration at 24 h: 0.192 µM
rat, plasma, iv, 40 mg/kg, rat, i.v. 40 mg/kg, 24h, mean of RM Plasma + Brain 24h rats, read-out: Plasma concentration
  concentration at 24 h: 0.192 µM
rat, plasma, iv, rats, 40 mg/kg i.v.
  half-life: 4 ± 0.6 h
rats, i.p. or i.v. injection
  Brain penetration: brain penetrant
